Measured values taken from patent US20080076183A1, “Polysaccharide-peptide conjugates for use as thrombin substrates” (Dade Behring Marburg GmbH, priority 2006, published 2008).
Non-standard residues stand in square brackets, D forms with d. Residues, ends and D or L forms follow the SMILES beside them. *: point of attachment. pNA = O=[N+]([O-])c1ccc(N*)cc1; βAla = NCCC(=O)O

How the values were obtained:
thrombin [1] = target: T1, thrombin (Homo sapiens, UniProt P00734); experiment: Thrombin generation test / determination of the endogenous thrombin potential in defibrinated platelet-poor plasma; assay type: biochemical; conditions: for course of substrate conversion curve after termination of thrombin formation and inhibition: extinction at 405 nm; for reaction kinetics / substrate consumption in a thrombin generation test: compared with H-β-Ala-Gly-Arg-pNA and dextran-β-Ala-Gly-Arg-pNA
Description: The thrombin generation was started by addition of 30 μl of Innovin® (reagent comprising recombinant human tissue factor and a mixture of synthetic phospholipids; Dade Behring Marburg GmbH, Germany) and 15 μl of CaCl2 [250 mM]. Measurement was started simultaneously. The change in extinction was monitored for at least 20 minutes in a Behring coagulation system BCS® system (Dade Behring Marburg GmbH, Marburg, Germany) at a wavelength of λ=405 nm (see FIG. 2).
For comparison purposes, the determination of the endogenous thrombin potential was carried out in parallel using the uncoupled substrate H-β-Ala-Gly-Arg-pNA. The substrate solution used for this contained 1 mM H-β-Ala-Gly-Arg-pNA (see FIG. 1).

thrombin [2] = target: T1, thrombin; experiment: Kinetic properties of thrombin substrates (Km, Vmax, Kcat, Kcat/Km)

| Compound | course of substrate conversion curve after termination of thrombin formation and inhibition (thrombin [1]; plasma sample) | reaction kinetics / substrate consumption in a thrombin generation test (thrombin [1]) | further results |
| --- | --- | --- | --- |
| Dextran-β-Ala-Gly-Arg-pNA | reaches a plateau phase |  |  |
| Dextran-D-CHG-Gly-Arg-pNA |  | substrate consumption rapidly occurs |  |
| Dextran-D-CHG-Ala-Arg-pNA |  | substrate consumption rapidly occurs |  |
| N=C(N)NCCC[C@H](NC(=O)CNC(=O)CCN)C(=O)Nc1ccc([N+](=O)[O-])cc1 [H-β-Ala-Gly-Arg-pNA 2AcOH] (H-[βAla]-Gly-Arg-pNA) | changes to a uniform, steady and linear increase, instead of reaching a plateau phase |  | Km (thrombin [2]; Michaelis constant, substrate affinity to thrombin): 2200 µM; Vmax (thrombin [2]; maximum reaction rate): 16 U; Kcat (thrombin [2]; turnover number): 17.4 s⁻¹; cleavage by α2-macroglobulin-bound thrombin (thrombin [1]; plasma sample): cleavage of the small molecular weight peptide substrate by α2-macroglobulin-bound thrombin |
